Results from publication PMC12057359, “Inhibitory effect of copper chelators on the budding in Candida albicans” (Antimicrobial Agents and Chemotherapy, 2025).
Where two headings read alike, the source gives them in different places.

Assays:
E. coli HO-141 = assay: iHOPE antimicrobial microdilution assay; format: cell-based, Escherichia coli; conditions: Escherichia coli, HO141; SD in parentheses, n = 3; read-out: IC50 against E. coli HO-141
S. aureus 209P = assay: iHOPE antimicrobial microdilution assay; format: cell-based, Staphylococcus aureus; conditions: Staphylococcus aureus, 209P; SD in parentheses, n = 3; read-out: IC50 against S. aureus 209P
C. tropicalis JCM1541 = assay: iHOPE antimicrobial microdilution assay (turbidity OD600); format: cell-based; conditions: Candida tropicalis, JCM1541; MOPS-RPMI medium, 24 h; SD in parentheses, n = 3; read-out: IC50 against C. tropicalis JCM1541
C. albicans JCM1542 [1] = format: cell-based, Candida albicans; conditions: C. albicans JCM1542, MOPS-RPMI medium, 24 h
C. albicans JCM1542 [2] = assay: iHOPE antimicrobial microdilution assay (turbidity OD600); format: cell-based, Candida albicans; conditions: for IC50: Candida albicans, JCM1542, MOPS-RPMI medium, 28°C, 24 h, OD600, standard deviation in parentheses, n = 3, read-out: IC50 against C. albicans JCM1542; for antifungal activity / inhibition of budding against C. albicans (in words): C. albicans JCM1542
P. oryzae Kita-1 = assay: microbe, parasite or virus in culture; format: cell-based, Pyricularia oryzae; conditions: Pyricularia oryzae, KITA1, read-out: IC50 against P. oryzae Kita-1
C. glabrata JCM3761 = assay: iHOPE antimicrobial microdilution assay (turbidity OD600); format: cell-based, Candida glabrata; conditions: Nakaseomyces glabratus, JCM3761; MOPS-RPMI medium, 24 h; SD in parentheses, n = 3; read-out: IC50 against C. glabrata JCM3761
C. auris Ci6684 = assay: as above; format: cell-based, Candida auris; conditions: Candidozyma auris, CI6684; MOPS-RPMI medium, 24 h; SD in parentheses, n = 3; read-out: IC50 against C. auris Ci6684
[3] = iHOPE in vitro cytotoxicity assessment (Cell Count Reagent SF); format: cell-based, human; conditions: human
Method: The method for in vitro cytotoxicity assessment using Cell Count Reagent SF (Nacalai Tesque) has been described previously ([15]). […] Test compounds were added to the culture medium, and then the plates were incubated at 28°C for 24 h.

A. fumigatus Af293 = assay: iHOPE antimicrobial microdilution assay; format: cell-based, Aspergillus fumigatus; conditions: Aspergillus fumigatus, AF293; SD in parentheses, n = 3; read-out: IC50 against A. fumigatus Af293
C. auris VPCI673 = assay: iHOPE antimicrobial microdilution assay (turbidity OD600); format: cell-based, Candida auris; conditions: Candidozyma auris, VPCI673; MOPS-RPMI medium, 24 h; SD in parentheses, n = 3; read-out: IC50 against C. auris VPCI673
[4] = SD in parentheses, n = 3, read-out: IC50 against HL-60 RCB0041 (cytotoxicity)

Work on `Nc1nc(=O)[nH]cc1F` [5-FC, 5-fluorocytosine] yielded an IC50 (E. coli HO-141) of over 30000 nM, an IC50 (S. aureus 209P) of over 30000 nM and an IC50 (C. tropicalis JCM1541) of 110 nM. The “morphological change induced in C. albicans” value (C. albicans JCM1542 [1]) was “hyphal-rich morphology”, the IC50 (C. albicans JCM1542 [2]) was 190 nM and the IC50 (P. oryzae Kita-1) was over 30000 nM. For the same molecule, the IC50 (C. glabrata JCM3761) was 81 nM, the IC50 (C. auris Ci6684) was 370 nM and the IC50 [3] was over 30000 nM. It also gave an IC50 (A. fumigatus Af293) of 15000 nM and an IC50 (C. auris VPCI673) of 270 nM.
In the case of `[C-]#[N+][C@H](C)CC(=O)NCc1ccc(N)cc1` [8a], the “antifungal activity / inhibition of budding against C. albicans (in words)” value (C. albicans JCM1542 [2]) is reported as “weak antifungal activity and inhibition of budding”, the IC50 (C. albicans JCM1542 [2]) is reported as 770 nM and the IC50 [3, 4] is reported as over 30000 nM.
In the case of `[C-]#[N+][C@@H](C)CC(=O)NCc1ccc(N)cc1` [8b], the “antifungal activity / inhibition of budding against C. albicans (in words)” value (C. albicans JCM1542 [2]) is reported as “weak antifungal activity and inhibition of budding”, the IC50 (C. albicans JCM1542 [2]) is reported as 1800 nM and the IC50 [3, 4] is reported as over 30000 nM.
For `[C-]#[N+][C@H](C)CC(=O)NCc1ccc(NC(=O)C[C@@H](C)[N+]#[C-])cc1` [10a], the IC50 (C. albicans JCM1542 [2]) was 380 nM and the IC50 [3, 4] was over 30000 nM.
Molecule `[C-]#[N+][C@@H](C)CC(=O)NCc1ccc(NC(=O)C[C@H](C)[N+]#[C-])cc1` [10b] has an IC50 (C. albicans JCM1542 [2]) of 190 nM and an IC50 [3, 4] of over 30000 nM.
In the case of `[C-]#[N+][C@H](C)CC(=O)NCCc1ccc(NC(=O)C[C@@H](C)[N+]#[C-])cc1` [12a], the IC50 (C. tropicalis JCM1541) is reported as 13 nM, the IC50 (C. albicans JCM1542 [2]) is reported as 12 nM and the IC50 (C. glabrata JCM3761) is reported as 10 nM. For the same molecule, the IC50 (C. auris Ci6684) was 58 nM, the IC50 [3, 4] was over 30000 nM and the IC50 (C. auris VPCI673) was 180 nM.
`[C-]#[N+][C@@H](C)CC(=O)NCCc1ccc(NC(=O)C[C@H](C)[N+]#[C-])cc1` [12b] gave an IC50 (C. tropicalis JCM1541) of 12 nM, an IC50 (C. albicans JCM1542 [2]) of 12 nM and an IC50 (C. glabrata JCM3761) of 12 nM. The IC50 (C. auris Ci6684) was 55 nM, the IC50 [3, 4] was over 30000 nM and the IC50 (C. auris VPCI673) was 140 nM.
For `[C-]#[N+][C@H](C)CC(=O)Nc1ccc(NC(=O)C[C@@H](C)[N+]#[C-])cc1` [13a], the IC50 (C. albicans JCM1542 [2]) was 410 nM and the IC50 [3, 4] was over 30000 nM.
Work on `[C-]#[N+][C@@H](C)CC(=O)Nc1ccc(NC(=O)C[C@H](C)[N+]#[C-])cc1` [13b] yielded an IC50 (C. albicans JCM1542 [2]) of 34 nM and an IC50 [3, 4] of over 30000 nM.
Work on `[C-]#[N+][C@H](C)CC(=O)Nc1cccc(NC(=O)C[C@@H](C)[N+]#[C-])c1` [14a] yielded an IC50 (C. albicans JCM1542 [2]) of 54 nM and an IC50 [3, 4] of over 30000 nM.
`[C-]#[N+][C@@H](C)CC(=O)Nc1cccc(NC(=O)C[C@H](C)[N+]#[C-])c1` [14b] gave an IC50 (C. albicans JCM1542 [2]) of 20 nM and an IC50 [3, 4] of over 30000 nM.
For `[C-]#[N+][C@H](C)CC(=O)N[C@H]1CC[C@@H](NC(=O)C[C@@H](C)[N+]#[C-])CC1` [15a], the IC50 (C. tropicalis JCM1541) was 32 nM, the IC50 (C. albicans JCM1542 [2]) was 15 nM and the IC50 (C. glabrata JCM3761) was 8.2 nM. It also gave an IC50 (C. auris Ci6684) of 49 nM, an IC50 [3, 4] of over 30000 nM and an IC50 (C. auris VPCI673) of 64 nM.
In the case of `[C-]#[N+][C@@H](C)CC(=O)N[C@H]1CC[C@@H](NC(=O)C[C@H](C)[N+]#[C-])CC1` [15b], the IC50 (C. tropicalis JCM1541) is reported as 26 nM, the IC50 (C. albicans JCM1542 [2]) is reported as 19 nM and the IC50 (C. glabrata JCM3761) is reported as 10 nM. The IC50 (C. auris Ci6684) was 62 nM, the IC50 [3, 4] was over 30000 nM and the IC50 (C. auris VPCI673) was 34 nM.
With `[C-]#[N+][C@H](C)CC(=O)N[C@H]1CC[C@H](NC(=O)C[C@@H](C)[N+]#[C-])CC1` [16a] the IC50 (C. albicans JCM1542 [2]) was 610 nM and the IC50 [3, 4] was over 30000 nM.
